Legend:
[1] = molecular target: T1, human RORγt (Ligand Binding Domain) (Homo sapiens, UniProt P51449); assay: Fluorescence Polarization (FP) Assay; settings: 100 nM human RORγt LBD, 25 nM TAMRA probe, values are activity range bounds
T1 construct: purchased Crelux (Planegg, Germany) batch no PC5032-1
T1 sequence (P51449 269-508 limits assumed): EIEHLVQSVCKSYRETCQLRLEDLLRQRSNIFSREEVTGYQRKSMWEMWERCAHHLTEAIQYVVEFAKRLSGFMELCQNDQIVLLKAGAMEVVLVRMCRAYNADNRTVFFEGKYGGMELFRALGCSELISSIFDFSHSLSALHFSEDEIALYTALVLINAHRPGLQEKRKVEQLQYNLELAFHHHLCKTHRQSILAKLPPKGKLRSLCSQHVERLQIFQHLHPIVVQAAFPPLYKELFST
Summary of the method: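 Binding to the RORγt ligand-binding domain was followed by FP. Displacement of a TAMRA-tagged RORγt ligand tracer (910 g/mol) was measured, with DMSO-only wells as negative control.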

[2] = molecular target: T2, ligand binding domain of human RORγ (Homo sapiens, UniProt P51449); assay: RORγ Reporter Assay (Gal4); type: cell-based; settings: for inhibition at 1 µM: HEK-293T, 1 μM test compound, HEK293t RORγ reporter cells, 24 hour, read-out: Gal4 activity range @ 1 μM (% inhibition); for Gal4 activity range @ 0.1 μM (% inhibition): RORγ Reporter Assay (Gal4), HEK293t reporter cells, compound at 0.1 μM, values are activity range bounds
T2 construct: host or cells: HEK293t
T2 sequence (P51449 269-508 limits assumed): T1 sequence (P51449 269-508 limits assumed)
Description: The activity of the compounds was evaluated using a Fluorescence Polarization (FP) Assay and, RORγ Reporter assay (also referred to as Gal4 assay). The FP assay is an in vitro assay monitoring binding within the ligand binding pocket. The RORγ and the Th17 assays (another suitable assay) are both cell-based assays monitoring functional activity of the compound assayed.
RORγ Reporter Assay (Gal4)
Cell-based RORγ functional assays were performed using a commercially available assay product (INDIGO Biosciences, State College, Pa., USA; product # IB04001). The RORγ reporter cells are HEK293t cells transfected with one vector that provides high level constitutive expression of a hybrid protein comprised of the yeast Gal4-DNA binding domain fused to the ligand binding domain of human RORγ, and a second vector comprising the firefly luciferase cDNA functionally linked to the upstream activation sequence (UAS) of yeast Gal4. A suspension of RORγ Reporter Cells was prepared using the protocol and culture medium provided in the kit product, and 100 μl of the Reporter Cell suspension was then dispensed into wells of a white, collagen-treated, 96-well assay plate. Concentrated stocks of test compounds were prepared in DMSO, then further diluted using media provided in the kit to generate ‘2×-concentration’ treatment media. 100 μl of medium for each respective treatment concentration dispensed into triplicate assay wells, thereby combining with the reporter cells. All media formulations contained 10% charcoal stripped Fetal Bovine Serum, but are otherwise proprietary to INDIGO Biosciences. Final treatment concentrations for each test compound were 1,000 nM and 100 nM, each with 0.1% residual DMSO. Separate control treatments were media supplemented with vehicle only (0.1% DMSO) to determine the constitutive level of RORγ activity in the reporter cells, and the reference inverse-agonist ursolic acid (f.c. 6,000 nM to 8.2 nM in 3-fold decrements) to establish a positive control inverse-agonist dose response. Assay plates were placed in a 37° C., 5% CO2, 85% humidity incubator for 24 hour. Treatment media were then discarded, 100 μl of luciferase detection reagent was added to each well, and relative light units (RLUs) were quantified from each assay well using a plate reading luminometer. Values of average RLU+/−standard deviation were computed for all treatment sets, followed by the calculations of fold-reduction: [Average RLUVehicle/Average RLUTest Cmpd]. Percent-reduction of RORγ activity in response to respective test compound treatments was calculated: [100*(1−[Ave RLUTest Cmpd/Ave RLUVehicle)] where the theoretical minimum reduction (0% reduction) derives from Vehicle treatment only, no treatment compound. In some aspects it may be of interest to provide compounds with selective modulation of RORγ for example compounds that are selective to RORγ over RORα, compounds that are selective for RORγ versus RORPβ, and compounds that are selective for RORγ versus BOTH RORα and RORPβ. It may also be of interest to provide compounds that are selective for RORγ versus further nuclear hormone receptors such as CAR1, FXR, GR, LXRα, LXRβ, PPARα, PXR, RARα, RXRα, TRα, VDR. It is apparent to those skilled in the art that these nuclear hormone receptors are merely examples, and that selectivity against other nuclear receptors may also be of interest. It may for example be of interest to provide compounds that modulate RORγ and one or more further nuclear hormone receptors, as well as compounds that modulate both RORγ and RORα, or RORγ and RORβ. It may also be of interest to provide compounds that modulate RORγ and BOTH RORα and RORP, as well as compounds that modulate both RORγ and one or more further nuclear hormone receptors such as CAR1, FXR, GR, LXRα, LXRβ, PPARα, PXR, RARα, RXRα, TRα, VDR. It is apparent to those skilled in the art that these nuclear hormone receptors are merely examples, and that modulation of even other nuclear receptors may also be of interest. […]

Row | Structure (SMILES) | IC50 [1] [nM] | inhibition at 1 µM [2] [%] | Gal4 activity range @ 0.1 μM (% inhibition) [2] [% inhibition]
1 | NC(=O)Cc1ccc(CNc2ncnc(N(C3CC3)C(c3ccc(C(F)(F)F)cc3)C3CCC3)c2F)cc1 (centres unmarked) [Example A17, 2-[4-[[[6-[[cyclobutyl-[4-(trifluoromethyl)phenyl]methyl]-cyclopropyl-amino]-5-fluoro-pyrimidin-4-yl]amino]methyl]phenyl]acetamide] | < 2000 | > 50 | >20
2 | CN(Cc1ccc(OC(F)(F)F)cc1)c1ncnc(NCc2ccc(CC(N)=O)cc2)c1F [Example A20, 2-[4-[[[5-fluoro-6-[methyl-[[4-(trifluoromethoxy)phenyl]methyl]amino]pyrimidin-4-yl]amino]methyl]phenyl]acetamide] | < 2000 | > 50 | >20
3 | CN(Cc1cccc(-n2cccn2)c1)c1ncnc(NCc2ccc(CC(N)=O)cc2)c1F [Example A58, 2-[4-[[[5-fluoro-6-[methyl-[(3-pyrazol-1-ylphenyl)methyl]amino]pyrimidin-4-yl]amino]methyl]phenyl]acetamide] | < 500 | > 80 | >20
4 | CS(=O)(=O)Nc1ccc(CNc2ncnc(N(Cc3ccc(C(F)(F)F)cc3)C3CC3)c2F)cc1 [Example A59, N-[4-[[[6-[cyclopropyl-[[4-(trifluoromethyl)phenyl]methyl]amino]-5-fluoro-pyrimidin-4-yl]amino]methyl]phenyl]methane-sulfonamide] | < 500 | > 80 | >80
5 | O=S(=O)(Nc1ccc(CNc2ncnc(N(Cc3ccc(C(F)(F)F)cc3)C3CC3)c2F)cc1)C(F)(F)F [Example A60, N-[4-[[[6-[cyclopropyl-[[4-(trifluoromethyl)phenyl]methyl]amino]-5-fluoro-pyrimidin-4-yl]amino]methyl]phenyl]-1,1,1-trifluoro-methanesulfonamide] | < 500 | > 80 | >0
6 | Fc1c(NC[C@H]2CC[C@H](Cc3nnn[nH]3)CC2)ncnc1N(Cc1ccc(C(F)(F)F)cc1)C1CC1 [Example A61, N4-cyclopropyl-5-fluoro-N6-[[4-(1H-tetrazol-5-ylmethyl)cyclohexyl]methyl]-N4-[[4-(trifluoromethyl)phenyl]methyl] pyrimidine-4,6-diamine] | < 500 | > 80 | >20
7 | N#CC[C@H]1CC[C@H](CNc2ncnc(N(Cc3ccc(C(F)(F)F)cc3)C3CC3)c2F)CC1 [Example A62, 2-[4-[[[6-[cyclopropyl-[[4-(trifluoromethyl)phenyl]methyl]amino]-5-fluoro-pyrimidin-4-yl]amino]methyl]cyclohexyl] acetonitrile] | < 500 | > 80 | >80
8 | CS(=O)(=O)NCC1(CNc2ncnc(N(Cc3ccc(C(F)(F)F)cc3)C3CC3)c2F)CCOCC1 [Example A63, N-[[4-[[[6-[cyclopropyl-[[4-(trifluoromethyl)phenyl]methyl]amino]-5-fluoro-pyrimidin-4-yl]amino]methyl]tetrahydropyran-4-yl]methyl]methanesulfonamide] | < 500 | > 80 | >80

Other lines, results leading:

Row | IC50 [1] [nM] | inhibition at 1 µM [2] [%] | Gal4 activity range @ 0.1 μM (% inhibition) [2] [% inhibition] | Structure (SMILES)
9 | < 500 | > 80 | >50 | NC(=O)Cc1ccc(CNc2ncnc(N(Cc3ccc(C(F)(F)F)cc3)CC3CC3)c2F)cc1 [Example A18, 2-[4-[[[6-[cyclopropylmethyl-[[4-(trifluoromethyl)phenyl]methyl]amino]-5-fluoro-pyrimidin-4-yl]amino]methyl]phenyl]acetamide]
10 | < 500 | > 80 | >20 | CN(Cc1ccc(C(F)(F)F)cc1)c1ncnc(NCc2ccc(CC(N)=O)cc2)c1F [Example A19, 2-[4-[[[5-fluoro-6-[methyl-[[4-(trifluoromethyl)phenyl]methyl]amino]pyrimidin-4-yl]amino]methyl]phenyl]acetamide]
11 | < 500 | > 50 | >20 | NC(=O)Cc1ccc(CNc2ncnc(N(Cc3ccccc3)C3CC3)c2F)cc1 [Example A42, 2-[4-[[[6-[benzyl(cyclopropyl)amino]-5-fluoro-pyrimidin-4-yl]amino]methyl]phenyl]acetamide]
12 | < 500 | > 50 | >0 | CN(Cc1ccc(-n2cccn2)cc1)c1ncnc(NCc2ccc(CC(N)=O)cc2)c1F [Example A52, 2-[4-[[[5-fluoro-6-[methyl-[(4-pyrazol-1-ylphenyl)methyl]amino]pyrimidin-4-yl]amino]methyl]phenyl]acetamide]
13 | < 500 | > 80 | >80 | CC(C)c1ccc(CN(c2ncnc(NCc3ccc(CC(N)=O)cc3)c2F)C2CC2)cc1 [Example A53, 2-[4-[[[6-[cyclopropyl-[(4-isopropylphenyl)methyl]amino]-5-fluoro-pyrimidin-4-yl]amino]methyl]phenyl]acetamide]
14 | < 500 | > 80 | >50 | CCOc1ccc(CN(c2ncnc(NCc3ccc(CC(N)=O)cc3)c2F)C2CC2)cc1 [Example A54, 2-[4-[[[6-[cyclopropyl-[(4-ethoxyphenyl)methyl]amino]-5-fluoro-pyrimidin-4-yl]amino]methyl]phenyl]acetamide]
15 | < 500 | > 0 |  | COc1cccc(CN(c2ncnc(NCc3ccc(CC(N)=O)cc3)c2F)C2CC2)c1 [Example A55, 2-[4-[[[6-[cyclopropyl-[(3-methoxyphenyl)methyl]amino]-5-fluoro-pyrimidin-4-yl]amino]methyl]phenyl]acetamide]
16 | < 500 | > 80 | >80 | OCC1(Cn2ccc3c(N(Cc4ccc(C(F)(F)F)cc4)C4CC4)ncnc32)COC1 [Example A56, [3-[[4-[cyclopropyl-[[4-(trifluoromethyl)phenyl]methyl]amino]pyrrolo[2,3-d]pyrimidin-7-yl]methyl]oxetan-3-yl]methanol]
17 | < 500 | > 80 | >50 | O=S(=O)(N[C@H]1CC[C@H](CNc2ncnc(N(Cc3ccc(C(F)(F)F)cc3)C3CC3)c2F)CC1)C(F)(F)F [Example A57, N-[4-[[[6-[cyclopropyl-[[4-(trifluoromethyl)phenyl]methyl]amino]-5-fluoro-pyrimidin-4-yl]amino]methyl]cyclohexyl]-1,1,1-trifluoro-methanesulfonamide]

From patent publication US10683293B2, “Optionally fused heterocyclyl-substituted derivatives of pyrimidine useful for the treatment of inflammatory, metabolic, oncologic and autoimmune diseases” (NUEVOLUTION A/S, priority 2014, dated 2020)
